A short description of data set [1]: % of radioactivity recovered as aliskiren in faeces following oral administration of [14C] aliskiren hemifumarate at 100 mg.Kg-1 level in rat. In kind it is ADME, organism-based, Albino HAN:WIST, Feces. As to conditions: in vivo.
The nature of data set [2]: % SPP100 in urine following single oral dose of 300 mg [14C]SPP100 studied in healthy men. It counts as ADME, organism-based. The note with it: human, in vivo, at 300 mg.
Data set [3] can be described thus: % of radioactivity recovered as aliskiren in urine following oral administration of [14C] aliskiren hemifumarate at 100 mg.Kg-1 level in rat. In kind it is ADME, organism-based, Albino HAN:WIST. As to conditions: in vivo.
The target in data set [4] is T1, CYP2C19 (Homo sapiens, UniProt P33261). The data set can be described thus: Inhibitory activity of 200 uM SPP100 on 1077 Pmoles of cDNA-derived CYP2C19 enzyme in microsome prepared from human lymphoblastoid cell line. It counts as ADME, microsomes. As to conditions: probe (S)-mephenytoin (50 uM). Set-up: conc 200 uM, interact cpd conc 50 uM.
Data set [5] is described as follows: % SPP100 (0-168h) recovered in urine following single oral dose of [14C] aliskiren hemifumarate at 3 mg.Kg-1 level in marmoset. It counts as ADME, organism-based, Callithrix jacchus. As to conditions: in vivo.
For data set [6], the target named is T1, CYP2C19. Nature of the data set: Inhibitory activity of 20 uM SPP100 on 1214 Pmoles of cDNA-derived CYP2C19 enzyme in microsome prepared from human lymphoblastoid cell line. It counts as ADME, microsomes. Further details: conc 20 uM, interact cpd conc 50 uM. The note with it: probe (S)-mephenytoin (50 uM).
Data set [7] in a line: Effect of single oral dose of 300 mg [14C]SPP100 on ECG values studied in healthy men. In kind it is toxicity, organism-based. The note with it: human, in vivo.
Data set [8] can be described thus: Faecal elimination of aliskiren following single oral dose of [14C] aliskiren hemifumarate at 500 mg.Kg-1 level in mouse. In kind it is ADME, organism-based, TgRasH2, Feces. The note with it: in vivo.
Data set [9] can be described thus: Mean excretion of radioactivity (48-72h) in urine and faeces following single intravenous dose of 10 mg.Kg-1 [14C] aliskiren hemifumarate in mouse. As to conditions: in vivo. It counts as ADME, organism-based, TgRasH2, Urine/Feces.
Data set [10] can be described thus: Tmax (0-168h) of total radioactivity following single oral administration of [14C] aliskiren hemifumarate at 3 mg.Kg-1 level in marmoset. It counts as ADME, organism-based, Callithrix jacchus, Plasma. The note with it: in vivo.
The nature of data set [11]: % of radioactivity (48h) recovered in urine of receiver rat following duodenal infusion of radioactivity through bile from donor rat treated with single intravenous administration of 10 mg.Kg-1 [14C] aliskiren hemifumarate. The note with it: in vivo. In kind it is ADME, organism-based, HAN:WIST(SPF).
Data set [12] can be described thus: Excretion (24h) of radioactivity in faeces following intravenous administration of [14C] aliskiren hemifumarate at 10 mg.Kg-1 level in rat. In kind it is ADME, organism-based, Lister-Hooded, Feces. As to conditions: in vivo.
The nature of data set [13]: Excretion of radioactivity (72-96h) in faeces following single oral dose of 100 mg.Kg-1 [14C] aliskiren hemifumarate in rat. In kind it is ADME, organism-based, Albino HAN:WIST, Feces. The note with it: in vivo.
Data set [14] in a line: Excretion of radioactivity (72-96h) in urine following single intravenous dose of 10 mg.Kg-1 [14C] aliskiren hemifumarate in rat. It counts as ADME, organism-based, Albino HAN:WIST. The note with it: in vivo.
Data set [15] in a line: Excretion of radioactivity (24-48h) in faeces following single intravenous dose of 10 mg.Kg-1 [14C] aliskiren hemifumarate in mouse. In kind it is ADME, organism-based, TgRasH2, Feces. The note with it: in vivo.
A short description of data set [16]: Excretion of radioactivity (48-72h) in urine following single intravenous dose of 10 mg.Kg-1 [14C] aliskiren hemifumarate in mouse. It counts as ADME, organism-based, TgRasH2. As to conditions: in vivo.
The target in data set [17] is Cytochrome P450 2E1 (Homo sapiens, UniProt P05181). Nature of the data set: Activity of human recombinant CYP2E1 assessed as enzyme contribution (% total relative CL) towards [14C]SPP100 hemifumarate metabolism in human liver microsome. In kind it is ADME. The note with it: microsomes. For orientation: Liver microsomes are vesicles of endoplasmic reticulum, rich in cytochrome P450 enzymes.

Data set [18] can be described thus: AUC(0-24h) of aliskiren hemifumarate following 2 week oral dosing of aliskiren hemifumarate at 50 mg.Kg-1 level studied on day 14 in male Callithrix jacchus. It counts as ADME, organism-based. As to conditions: marmoset, plasma.
Data set [19] is described as follows: AUC (0-96 or 0-168h) of unlabeled aliskiren hemifumarate following single intravenous administration of aliskiren hemifumarate at 1 mg.Kg-1 level in marmoset. In kind it is ADME, organism-based, Callithrix jacchus. The note with it: plasma.
Data set [20] can be described thus: Absorption (0-96h) of unlabeled aliskiren hemifumarate following oral administration of aliskiren hemifumarate at 100 mg.Kg-1 level in rat. In kind it is ADME, organism-based. As to conditions: Albino HAN:WIST, plasma, read-out: Absorption.
Data set [21] in a line: Tmax of aliskiren hemifumarate following 2 week oral dosing of aliskiren hemifumarate at 100 mg.Kg-1 level studied on day 1 in female Callithrix jacchus. It counts as ADME, organism-based. The note with it: marmoset, plasma.
Data set [22] can be described thus: t1/2 of aliskiren hemifumarate following 2 week oral dosing of aliskiren hemifumarate at 50 mg.Kg-1 level studied on day 14 in female Callithrix jacchus. As to conditions: marmoset, plasma. In kind it is ADME, organism-based.
The nature of data set [23]: Cmax of aliskiren hemifumarate following single dosing of SPP100B oral solution at 80 mg level studied on day 1 in men. In kind it is ADME, organism-based. As to conditions: male, human, plasma.
The nature of data set [24]: Tmax of aliskiren hemifumarate following 2 week oral dosing of aliskiren hemifumarate at 10 mg.Kg-1 level studied on day 14 in female Callithrix jacchus. It counts as ADME, organism-based. The note with it: marmoset, plasma.
The nature of data set [25]: Cmax of aliskiren hemifumarate following 2 week oral dosing of aliskiren hemifumarate at 100 mg.Kg-1 level studied on day 14 in female Callithrix jacchus. In kind it is ADME, organism-based. As to conditions: marmoset, plasma.
A short description of data set [26]: AUC (0-24h)/dose of aliskiren hemifumarate following 4 week oral dietary dosing of aliskiren hemifumarate at 1000 mg.Kg-1 level in male mouse. In kind it is ADME, organism-based, CB6F1-TGrasH2, Plasma. The note with it: in vivo.
Data set [27] in a line: Effect of 2 week oral dosing of aliskiren hemifumarate at 50 mg.Kg-1 level on plasma creatinine level in male Callithrix jacchus. In kind it is toxicity, organism-based. The note with it: marmoset, 336 h.
Data set [28] is described as follows: Cmax of aliskiren hemifumarate following repeated oral administration of [14C] aliskiren hemifumarate at 100 mg.Kg-1 level studied after 2h of dosing on day 10 in rat. It counts as ADME, organism-based, Albino HAN:WIST. As to conditions: in vivo, read-out: Cmax(10).
Data set [29] in a line: Tmax of aliskiren hemifumarate following 4 week oral dietary dosing of aliskiren hemifumarate at 2000 mg.Kg-1 level in female mouse. It counts as ADME, organism-based. The note with it: CB6F1-TGrasH2, mouse, in vivo.
Data set [30] in a line: AUC (0-24h)/dose of aliskiren hemifumarate following 4 week oral dietary dosing of aliskiren hemifumarate at 1500 mg.Kg-1 level in female mouse. In kind it is ADME, organism-based, CB6F1-TGrasH2, Plasma. As to conditions: in vivo.
A short description of data set [31]: Cmax normalised (0-168h) of unlabeled aliskiren hemifumarate following single oral administration of aliskiren hemifumarate at 3 mg.Kg-1 level in marmoset. It counts as ADME, organism-based, Callithrix jacchus, Plasma. The note with it: in vivo.
A short description of data set [32]: AUC of aliskiren hemifumarate following single dosing of SPP100B oral solution at 640 mg level studied on day 1 in men. In kind it is ADME, organism-based. The note with it: male, human, plasma.
Data set [33] in a line: Effect of 2 week oral dosing of aliskiren hemifumarate at 50 mg.Kg-1 level on plasma magnesium level in female Callithrix jacchus. It counts as toxicity, organism-based. As to conditions: marmoset, 336 h.
The nature of data set [34]: Effect of 4 week oral dietary dosing of aliskiren hemifumarate at 1500 mg.Kg-1 level on density of uterine gland in female mouse. It counts as toxicity, organism-based, CB6F1-TGrasH2, Endometrial gland. The note with it: in vivo, 672 h.
Data set [35] is described as follows: AUC (0-24h) of aliskiren hemifumarate following 4 week oral dietary dosing of aliskiren hemifumarate at 2000 mg.Kg-1 level in male mouse. It counts as ADME, organism-based. As to conditions: CB6F1-TGrasH2, mouse, plasma.
Data set [36] in a line: Elimination half-life of aliskiren hemifumarate following repeated oral administration of [14C] aliskiren hemifumarate at 100 mg.Kg-1 level studied in rat. In kind it is ADME, organism-based, Albino HAN:WIST. The note with it: in vivo.
The nature of data set [37]: AUC(0-24)/dose of aliskiren hemifumarate following repeated oral administration of [14C] aliskiren hemifumarate at 100 mg.Kg-1 level studied in rat. As to conditions: in vivo. In kind it is ADME, organism-based, Albino HAN:WIST, Plasma.
A short description of data set [38]: Cmax (0-168h) of unlabeled aliskiren hemifumarate following single oral administration of aliskiren hemifumarate at 3 mg.Kg-1 level in marmoset. It counts as ADME, organism-based, Callithrix jacchus, Plasma. The note with it: in vivo.
Data set [39] can be described thus: Cmaxspec of aliskiren hemifumarate following 2 week oral dosing of aliskiren hemifumarate at 50 mg.Kg-1 level studied on day 1 in female Callithrix jacchus. In kind it is ADME, organism-based, Plasma. As to conditions: marmoset, in vivo, 336 h.

From ChEMBL document CHEMBL3508693 (2016) come the findings set out here.

A value given as a limit tells only on which side of the number the result lay.

As usually defined, the inhibition is the relative decrease from the control value, in per cent. For orientation: Tmax means the time from dosing to the highest level. As a reminder, the AUC is concentration integrated over time. In general, half-life refers to the time in which the quantity being followed falls by half. A low value points to fast loss. In general, Cmax refers to the maximum level reached in the sampled fluid or tissue. The term AUC(0-t) denotes the area under the concentration-time curve up to a stated or last time point. Read a high AUC(0-t) as high exposure.

T1 sequence (P33261 whole entry): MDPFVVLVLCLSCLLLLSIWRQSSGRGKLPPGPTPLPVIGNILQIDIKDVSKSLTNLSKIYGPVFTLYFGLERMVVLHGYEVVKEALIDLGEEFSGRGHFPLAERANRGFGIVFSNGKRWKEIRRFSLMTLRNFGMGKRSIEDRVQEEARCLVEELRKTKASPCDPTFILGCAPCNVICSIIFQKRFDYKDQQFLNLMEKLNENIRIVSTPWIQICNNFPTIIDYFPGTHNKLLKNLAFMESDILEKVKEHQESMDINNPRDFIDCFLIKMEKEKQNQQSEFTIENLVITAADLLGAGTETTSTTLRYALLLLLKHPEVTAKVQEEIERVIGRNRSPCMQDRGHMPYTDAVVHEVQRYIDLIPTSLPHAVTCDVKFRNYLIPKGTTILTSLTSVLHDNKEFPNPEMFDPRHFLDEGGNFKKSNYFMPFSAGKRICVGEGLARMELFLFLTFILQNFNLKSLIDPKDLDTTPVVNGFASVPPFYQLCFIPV
Chain of Cytochrome P450 2E1 (P05181 whole entry): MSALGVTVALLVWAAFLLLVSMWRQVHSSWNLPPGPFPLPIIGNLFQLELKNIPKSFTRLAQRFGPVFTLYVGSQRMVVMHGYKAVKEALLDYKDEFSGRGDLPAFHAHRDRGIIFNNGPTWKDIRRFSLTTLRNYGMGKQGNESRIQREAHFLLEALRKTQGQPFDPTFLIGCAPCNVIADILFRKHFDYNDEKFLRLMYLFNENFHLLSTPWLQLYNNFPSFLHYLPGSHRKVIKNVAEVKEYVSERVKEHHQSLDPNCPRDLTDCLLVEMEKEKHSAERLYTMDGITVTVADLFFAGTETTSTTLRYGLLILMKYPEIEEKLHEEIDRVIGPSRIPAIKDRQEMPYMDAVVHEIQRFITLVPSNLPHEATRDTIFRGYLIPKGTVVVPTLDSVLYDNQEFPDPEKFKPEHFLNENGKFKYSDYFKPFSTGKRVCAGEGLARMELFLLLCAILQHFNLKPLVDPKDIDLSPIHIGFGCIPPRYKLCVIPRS

Consider `COCCCOc1cc(C[C@@H](C[C@H](N)[C@@H](O)C[C@H](C(=O)NCC(C)(C)C(N)=O)C(C)C)C(C)C)ccc1OC`, for which the Compound recovery in [1] is on record as > 40%; in data set [2] it was 0.4%; in data set [3], “<= 2%”; in data set [5], 2.3%. Further, in data set [4], the inhibition at 200 µM came to 9.6%. Also, in data set [6], the inhibition at 20 µM was -1.9%.

On to `COCCCOc1cc(C[C@@H](C[C@H](N)[C@@H](O)C[C@H](C(=O)NCC([14CH3])([14CH3])C(N)=O)C(C)C)C(C)C)ccc1OC.O=C(O)/C=C/C(=O)O`, for which, in data set [7], the ECG entry is “OUTCOME = ECG findings were all considered as normal”. Also, the Radiolabel recovery result in data set [8] is given as “OUTCOME = Observed, VALUE = Elimination of aliskiren occurred mainly via the biliary or faecal route”; in [9], 0.9%; in [11], 0.6%; in [12], 66%; in data set [13] it was 0.17%; in data set [14] it was 2.5%. The Radiolabel recovery in data set [15] came out at 5.69%; in [16], 8.99%. The Tmax in data set [10] came out at 2 h. Moreover, in data set [17], the Activity was 0.06%.

In [18], `COCCCOc1cc(C[C@@H](C[C@H](N)[C@@H](O)C[C@H](C(=O)NCC(C)(C)C(N)=O)C(C)C)C(C)C)ccc1OC.COCCCOc1cc(C[C@@H](C[C@H](N)[C@@H](O)C[C@H](C(=O)NCC(C)(C)C(N)=O)C(C)C)C(C)C)ccc1OC.O=C(O)/C=C/C(=O)O` [ALISKIREN FUMARATE] returned an AUC at 24 h of 107000 ng·h/mL. The compound further had an AUC at 168 h in [19] of 49 µM·h. For the same compound, the Fa in data set [20] is ≥ 3.4%. The values for the Tmax in data set [21], in data set [24] and in data set [29] were 1 h, 1 h and 0.5 h, respectively. The compound also showed a half-life in data set [22] of 8.19 h. In addition, the Cmax worked out at 11 ng/mL in data set [23], 10600 ng/mL in data set [25], 357 nM in data set [28] and 395 nM in data set [38]. Also, the AUC normalised is reported as 4.82 ((ng/mL).hours)/(mg/kg/day) in data set [26] and 3.65 ((ng/mL).hours)/(mg/kg/day) in data set [30]. Further, in data set [27], the CREAT_CHANGE_BY was determined as 130%. For the same compound, the Cmax normalised was 0.132 (umol/L)/(mg/kg) in data set [31] and 0.177 (ug/ml)/(mg/kg) in data set [39]. In data set [32], the AUC is 1190 ng·h/mL. The “Plasma magnesium_CHANGE_BY” value in data set [33] was found to be 130%. Also, the “Change in density of uterine gland” value in data set [34] was “OUTCOME = Decreased. No animals died during the study”. The compound also gave an AUC(0-t) at 24 h in data set [35] of 7720 ng·h/mL. In data set [36], this compound returned a t1/2 of 39.5 h. The “AUC(0-24) normalised” value in data set [37] is given as 17.2 (nmol.h.L-1)/(mg/kg).
